Values of other authors as cited in patent US20050000529A1, “Method and compositions for imparting cooling effect to tobacco products” (priority 2001, published 2005).
Entries after “also recorded” stand apart in the source; their conditions may differ.

Columns and labels:
[1] = tap water, triangle test
[2] = tap water, triangle test; remark: listed apart in the source
[3] = taste testing; comparison with related compounds

| Structure (SMILES) | Cooling Threshold [1] [mg/kg] | Odor Threshold [2] [mg/kg] | cooling activity (in words) [3] |
| --- | --- | --- | --- |
| CC1=C(N2CCCC2)C(=O)CC(C)(C)C1 [Compound 17, 3,5,5-trimethyl-2-(1-pyrrolidinyl)-2-cyclohexen-1-one] | 1605.0 to 2675.0 | 50.2 to 83.6 |  |
| CCCCCCN(CCCCCC)C1=CCC(C)C1=O (centres unmarked) [Compound 8, 5-methyl-2-dihexylamino-2-cyclopenten-1-one] |  |  | completely diminishes the cooling activity |
| CC1=C(N2CCCC2)C(=O)OC1C (centres unmarked) [Compound 26, 4,5-dimethyl-3-(1-pyrrolidinyl)-2-(5H)-furanone] | 2.0 to 4.0 | 32.0 to 64.0 | dramatically increases cooling activity |
| CCN(CC)C1=C(C)CCC1=O [Compound 4, 3-methyl-2-diethylamino-2-cyclopenten-1-one] | 30.0 to 50.0 | 2.0 to 3.0 |  |
| CC1CC=C(N2CCOCC2)C1=O (centres unmarked) [Compound 20, 5-methyl-2-(1-morpholino)-2-cyclopenten-1-one] | 467.0 to 700.8 | 935.0 to 1558.0 | substantially decreases the cooling effect |
| COC(=O)C1CCCN1C1=CC[C@H](C)C1=O (stereo partly drawn) [Compound 21, (S)-5-methyl-2-(2-methoxycarbonyl-1-pyrrolidinyl)-2-cyclopenten-1-one] | 112.0 to 188.0 |  | substantially decreases the cooling effect |
| CC1=C(N2CCC[C@H]2C(=O)O)C(=O)CC1 [Compound 22, (S)-3-methyl-2-(2-carboxy-l-pyrrolidinyl)-2-cyclopenten-1-one] | 490.0 to 735.0 |  | substantially decreases the cooling effect |
| O=C1C=C(N2CCCC2)CC1 [Compound 13, 3-(1-pyrrolidinyl)-2-cyclopenten-1-one] |  | 234.0 to 390.0 | loss of cooling activity |
| CC1=C(N2CCCC2)C(=O)CC1C (centres unmarked) [Compound 12, 3,4-dimethyl-2-(1-pyrrolidinyl)-2-cyclopenten-1-one] | 51.3 to 85.5 | 25.7 to 42.8 |  |
| CC1CC=C(N2CCCCC2)C1=O (centres unmarked) [Compound 5, 5-methyl-2-(1-piperidinyl)-2-cyclopenten-1-one] | 16.0 to 24.0 | 12.0 to 20.0 |  |
| CC1C=C(N2CCCC2)C(=O)C1C (centres unmarked) [Compound 10, (E)-4,5-dimethyl-2-(1-pyrrolidinyl)-2-cyclopenten-1-one] | 68.0 to 113.3 | 136.0 to 226.6 | significant increase in cooling activity |
| CC1=C(N2CCCC2)C(=O)CC1 [Compound 1, 3-methyl-2-(1-pyrrolidinyl)-2-cyclopenten-1-one] | 29.0 to 43.5 | 43.5 to 72.5 | long lasting sensation of coolness; also recorded: high degree of cooling effect |
| CC1=C(N2CCCCC2)C(=O)CC1 [Compound 3, 3-methyl-2-(1-piperidinyl)-2-cyclopenten-1-one] | 60.0 to 100.0 | 80.0 to 120.0 |  |
| CC1CC=C(N2CCCC2)C1=O (centres unmarked) [Compound 2, 5-methyl-2-(1-pyrrolidinyl)-2-cyclopenten-1-one] | 4.5 to 9.0 | 2.6 to 5.2 | long lasting sensation of coolness; also recorded: high degree of cooling effect |
| CC1=C(N2CCCC2)C(=O)C(C)O1 (stereo not drawn) [Compound 24, 2,5-dimethyl-4-(l-pyrrolidinyl)-3-(2H)-furanone] | 100.0 to 140.0 | 30.0 to 60.0 |  |
| O=C1CCCC=C1N1CCCC1 [Compound 15, 2-(1-pyrrolidinyl)-2-cyclohexen-1-one] | 495.0 to 830.0 | 62.0 to 106.0 | significantly decreases cooling activity |
| CC1=C(N2CCCC2)C(=O)CO1 [Compound 23, 5-methyl-4-(1-pyrrolidinyl)-3-(2H)-furanone] | 1.5 to 3.0 |  | strong increase in cooling activity; also recorded: high degree of cooling effect |
| CC1=C(N2CCCC2)C(=O)OC1 [Compound 25, 4-methyl-3-(1-pyrrolidinyl)-2-(5H)-furanone] | 0.05 to 0.06 |  | dramatically increases cooling activity; also recorded: high degree of cooling effect |
| CC1=C(N2CCCC2)C(=O)C(C)C1 (centres unmarked) [Compound 11, 3,5-dimethyl-2-(1-pyrrolidinyl)-2-cyclopenten-1-one] | 32.5 to 53.5 | 16.0 to 27.0 | small effect on cooling activity |
| CC1CC(C)(C)C=C(N2CCCC2)C1=O (centres unmarked) [Compound 19, 4,4,6-trimethyl-2-(1-pyrrolidinyl)-2-cyclohexen-1-one] | 2213.0 to 3688.0 | 553.0 to 922.0 | significantly decreases cooling activity |
| CC1=C(N2CCCC2)C(=O)CCC1 [Compound 16, 3-methyl-2-(1-pyrrolidinyl)-2-cyclohexen-1-one] | 90.5 to 150.8 | 45.2 to 75.4 |  |
| CCN(CC)C1=CCC(C)C1=O (centres unmarked) [Compound 6, 5-methyl-2-diethylamino-2-cyclopenten-1-one] | 12.0 to 20.0 | 6.0 to 9.0 | does not substantially decrease the cooling activity |
| CCC1CC=C(N2CCCC2)C1=O (centres unmarked) [Compound 9, 5-ethyl-2-(1-pyrrolidinyl)-2-cyclopenten-1-one] | 26.7 to 42.5 | 13.4 to 22.4 | significant increase in cooling activity |
| CC1CCC=C(N2CCCC2)C1=O (centres unmarked) [Compound 18, 6-methyl-2-(1-pyrrolidinyl)-2-cyclohexen-1-one] | 26.9 to 44.8 | 3.4 to 5.6 |  |
| CCCCN(CCCC)C1=CCC(C)C1=O (centres unmarked) [Compound 7, 5-methyl-2-dibutylamino-2-cyclopenten-1-one] | 48.4 to 67.8 | 2.4 to 2.8 | drastically decreases the cooling activity |
| CC1=C(N2CCCC2)CCC1=O [Compound 14, 2-methyl-3-(1-pyrrolidinyl)-2-cyclopenten-1-one] |  | 92.0 to 138.0 | loss of cooling activity |
